{"source": "patent US20110166112A1", "about": "“METHOD FOR STIMULATING PLATELET PRODUCTION” (Eisai, Inc., priority 2009, published 2011)", "test_system": "subjects with chronic ITP who completed 28 days of study treatment", "test": "Phase 2 6-month rollover study of E5501: effectiveness (durable, transient, overall platelet response, maintenance, steroid use, upward dose titration)", "type": "in vivo, human", "experimental": "This study was a multicenter, parallel-group, rollover study of E5501 in subjects with chronic ITP who were enrolled in and completed 28 days' of study treatment. All subjects who completed the previous study and otherwise met the eligibility criteria for this rollover protocol were enrolled.\nSubjects who rolled over from the previous study were treated for an additional 6 months after completing previous study.\nInitial dose: Subjects who met the efficacy response in the previous study continued to receive their previous blinded dose at entry into this study.\nDose titration was performed in an open label fashion in 10 mg increments as follows: • Nonresponders, who received initial doses of open-label E5501 10 mg in the previous study, could have their dose increased in 10 mg increments every 14 days to a maximum of 40 mg/day in the absence of platelet response.\nSubjects were also permitted to reduce their dose of ITP-directed concomitant therapy (e.g., steroids). The overall goal of any dose modification was to maintain the subject's peripheral platelet count above 50,000/mm^3 and to decrease the need for ITP-directed concomitant medications (if applicable). During any dose modification of study drug or ITP-directed concomitant medications, platelet counts were collected every week. After platelet counts stabilized, platelet count collection reverted to a biweekly schedule.\nAssessments: Study subjects were evaluated for safety and efficacy (including platelet count) on day 1 and then biweekly while receiving treatment.\nTwo primary analysis populations were used to summarize safety and effectiveness: • Safety population: all subjects who received at least 1 dose of study drug and had at least 1 post-treatment safety assessment in either the previous or this study. All safety analyses were performed using this population. • Full Analysis Set (FAS): all subjects who participated in both studies and who had at least one post-treatment effectiveness assessment in this study. All efficacy analyses were performed using this population.\nSecondary Endpoints: The secondary endpoints were markers of effectiveness, including: • 1. Changes in platelet count from baselines of the previous study and of this study by study visit; and • 2. Durable platelet response, defined as subjects who had at least 3 platelet count assessments in the last 14 weeks of the 24-week treatment period, and whose platelet count was at a response level for at least 75% of the time in the last 14 weeks during the 24-week treatment period, with no rescue medication used during the 24-week treatment period. Platelet response level was defined as ≧50,000/mm^3 for subjects whose baseline platelet count was <30,000/mm^3 in the previous study or an increase in baseline platelet count of ≧20,000/mm^3 for subjects receiving steroids whose baseline platelet count in the previous study was ≧30,000/mm^3 but <50,000/mm^3; • 3. Transient platelet response, defined as achievement of a response level for any 4 consecutive weeks during the 24-week treatment period without durable platelet response in the absence of any rescue medication; • 4. Overall platelet response (durable platelet response plus transient platelet response); • 5. Maintenance of platelet response, defined as subjects who were responders in the previous study (e.g., responders on day 28 of the previous study) who achieved a durable response in this study and had no upward dose titration of E5501 during this study; • 6. Permanent discontinuation of steroid use, defined as subjects who used steroid medication within the 2-week period before their first dose of study drug in this study, and for whom concomitant steroid medication was discontinued at least 8 weeks before the end of the treatment period; • 7. Reduction of steroid use by at least 50%. […]", "key": {"[1]": {"conditions": "FAS, Baseline PC >15K/mm^3, Responders, N assessed 19"}, "[2]": {"conditions": "FAS, Baseline PC ≦15K/mm^3, E5501 Total, N assessed 15"}, "[3]": {"conditions": "FAS, Baseline PC ≦15K/mm^3, Non-Responders, N assessed 9"}, "[4]": {"conditions": "FAS, Baseline PC ≦15K/mm^3, Responders, N assessed 6"}, "[5]": {"conditions": "FAS, History of Splenectomy, E5501 Total, N assessed 17"}, "[6]": {"conditions": "FAS, History of Splenectomy, Non-Responders, N assessed 10"}, "[7]": {"conditions": "FAS, History of Splenectomy, Responders, N assessed 7"}, "[8]": {"conditions": "FAS, No History of Splenectomy, E5501 Total, N assessed 36"}, "[9]": {"conditions": "FAS, No History of Splenectomy, Non-Responders, N assessed 18"}, "[10]": {"conditions": "FAS, No History of Splenectomy, Responders, N assessed 18"}, "[11]": {"conditions": "FAS, ≧3 Lines of Prior Therapy, E5501 Total, N assessed 35"}, "[12]": {"conditions": "FAS, ≧3 Lines of Prior Therapy, Non-Responders, N assessed 22"}, "[13]": {"conditions": "FAS, ≧3 Lines of Prior Therapy, Responders, N assessed 13"}, "[14]": {"conditions": "SE population, E5501 Total (N=36)"}, "[15]": {"conditions": "SE population, Non-Responders (N=15)"}, "[16]": {"conditions": "SE population, Responders (N=21)"}}, "data": [{"smiles": "O=C(Nc1nc(-c2cc(Cl)cs2)c(N2CCN(C3CCCCC3)CC2)s1)c1cnc(N2CCC(C(=O)O)CC2)c(Cl)c1", "note": "[E5501, 1-(3-chloro-5-{[4-(4-chlorothiophen-2-yl)-5-(4-cyclohexylpiperazin-1-yl)thiazol-2-yl]carbamoyl}pyridine-2-yl)piperidine-4-carboxylic acid]", "values": [{"measurement": "Durable Platelet Response, n (%) with response", "setting": "[1]", "value": "15 (78.9) n (%)"}, {"measurement": "Overall Platelet Response, n (%) with response", "setting": "[1]", "value": "18 (94.7) n (%)"}, {"measurement": "Durable Platelet Response, n (%) with response", "setting": "[2]", "value": "4 (26.7) n (%)"}, {"measurement": "Overall Platelet Response, n (%) with response", "setting": "[2]", "value": "7 (46.7) n (%)"}, {"measurement": "Durable Platelet Response, n (%) with response", "setting": "[3]", "value": "1 (11.1) n (%)"}, {"measurement": "Overall Platelet Response, n (%) with response", "setting": "[3]", "value": "3 (33.3) n (%)"}, {"measurement": "Durable Platelet Response, n (%) with response", "setting": "[4]", "value": "3 (50.0) n (%)"}, {"measurement": "Overall Platelet Response, n (%) with response", "setting": "[4]", "value": "4 (66.7) n (%)"}, {"measurement": "Durable Platelet Response, n (%) with response", "setting": "[5]", "value": "5 (29.4) n (%)"}, {"measurement": "Overall Platelet Response, n (%) with response", "setting": "[5]", "value": "10 (58.8) n (%)"}, {"measurement": "Durable Platelet Response, n (%) with response", "setting": "[6]", "value": "1 (10.0) n (%)"}, {"measurement": "Overall Platelet Response, n (%) with response", "setting": "[6]", "value": "5 (50.0) n (%)"}, {"measurement": "Durable Platelet Response, n (%) with response", "setting": "[7]", "value": "4 (57.1) n (%)"}, {"measurement": "Overall Platelet Response, n (%) with response", "setting": "[7]", "value": "5 (71.4) n (%)"}, {"measurement": "Durable Platelet Response, n (%) with response", "setting": "[8]", "value": "23 (63.9) n (%)"}, {"measurement": "Overall Platelet Response, n (%) with response", "setting": "[8]", "value": "30 (83.3) n (%)"}, {"measurement": "Durable Platelet Response, n (%) with response", "setting": "[9]", "value": "9 (50.0) n (%)"}, {"measurement": "Overall Platelet Response, n (%) with response", "setting": "[9]", "value": "13 (72.2) n (%)"}, {"measurement": "Durable Platelet Response, n (%) with response", "setting": "[10]", "value": "14 (77.8) n (%)"}, {"measurement": "Overall Platelet Response, n (%) with response", "setting": "[10]", "value": "17 (94.4) n (%)"}, {"measurement": "overall platelet response rate", "setting": "FAS, all subjects", "value": 75.5, "unit": "%"}, {"measurement": "overall platelet response rate", "setting": "FAS, nonresponders", "value": 64.3, "unit": "%"}, {"measurement": "overall platelet response rate", "setting": "FAS, responders", "value": 88.0, "unit": "%"}, {"measurement": "Durable Platelet Response, n (%) with response", "setting": "[11]", "value": "16 (45.7) n (%)"}, {"measurement": "Overall Platelet Response, n (%) with response", "setting": "[11]", "value": "25 (71.4) n (%)"}, {"measurement": "Durable Platelet Response, n (%) with response", "setting": "[12]", "value": "7 (31.8) n (%)"}, {"measurement": "Overall Platelet Response, n (%) with response", "setting": "[12]", "value": "14 (63.6) n (%)"}, {"measurement": "Durable Platelet Response, n (%) with response", "setting": "[13]", "value": "9 (69.2) n (%)"}, {"measurement": "Overall Platelet Response, n (%) with response", "setting": "[13]", "value": "11 (84.6) n (%)"}, {"measurement": "overall platelet response rate", "setting": "SE population", "value": 94.4, "unit": "%"}, {"measurement": "Durable Platelet Response No, %", "setting": "[14]", "value": "(25.0) %"}, {"measurement": "Durable Platelet Response Yes, %", "setting": "[14]", "value": "(75.0) %"}, {"measurement": "Transient Platelet Response No, %", "setting": "[14]", "value": "(80.6) %"}, {"measurement": "Transient Platelet Response Yes, %", "setting": "[14]", "value": "(19.4) %"}, {"measurement": "With Overall Response No, %", "setting": "[14]", "value": "(5.6) %"}, {"measurement": "With Overall Response Yes, %", "setting": "[14]", "value": "(94.4) %"}, {"measurement": "Durable Platelet Response No, %", "setting": "[15]", "value": "(40.0) %"}, {"measurement": "Durable Platelet Response Yes, %", "setting": "[15]", "value": "(60.0) %"}, {"measurement": "Transient Platelet Response No, %", "setting": "[15]", "value": "(73.3) %"}, {"measurement": "Transient Platelet Response Yes, %", "setting": "[15]", "value": "(26.7) %"}, {"measurement": "With Overall Response No, %", "setting": "[15]", "value": "(13.3) %"}, {"measurement": "With Overall Response Yes, %", "setting": "[15]", "value": "(86.7) %"}, {"measurement": "Durable Platelet Response No, %", "setting": "[16]", "value": "(14.3) %"}, {"measurement": "Durable Platelet Response Yes, %", "setting": "[16]", "value": "(85.7) %"}, {"measurement": "Transient Platelet Response No, %", "setting": "[16]", "value": "(85.7) %"}, {"measurement": "Transient Platelet Response Yes, %", "setting": "[16]", "value": "(14.3) %"}, {"measurement": "With Overall Response Yes, %", "setting": "[16]", "value": "(100.0) %"}, {"measurement": "Durable platelet response rate", "setting": "SE population, all subjects", "value": 75, "unit": "%"}, {"measurement": "Durable platelet response rate", "setting": "SE population, non-responders", "value": 60.0, "unit": "%"}, {"measurement": "Durable platelet response rate", "setting": "SE population, responders", "value": 85.7, "unit": "%"}, {"measurement": "subjects who needed an upward dose titration", "setting": "all subjects (n=26/53)", "value": 49, "unit": "%"}, {"measurement": "subjects able to decrease their steroid dose by at least 50%", "setting": "in vivo", "value": "Thirteen"}, {"measurement": "improved overall response rate when subjects received a dose titration", "setting": "non-responders in the previous study", "value": 87.6, "unit": "%"}, {"measurement": "overall response rate", "setting": "non-responders on E5501 2.5 mg in previous study, open-label E5501 10 mg in current study", "value": 70, "unit": "%"}, {"measurement": "overall response rate", "setting": "non-responders on E5501 5 mg in previous study, open-label E5501 10 mg in current study", "value": 80, "unit": "%"}, {"measurement": "overall response rate", "setting": "non-responders on placebo in previous study, open-label E5501 10 mg in current study", "value": 80, "unit": "%"}, {"measurement": "subjects not responding to E5501 10 mg in the previous study who responded at 20 mg", "setting": "of five subjects", "value": "Two"}, {"measurement": "subjects who used concomitant steroids able to decrease their concomitant steroid use by at least 50%", "setting": "regardless of responder status", "value": 54.2, "unit": "%"}, {"measurement": "subjects who used concomitant steroids able to permanently discontinue using steroids", "setting": "regardless of responder status", "value": 33.3, "unit": "%"}, {"measurement": "overall response when subjects received a dose titration", "setting": "responders in the previous study", "value": 100, "unit": "%"}, {"measurement": "overall response rate", "setting": "responders receiving double-blind E5501 10 mg", "value": 71.4, "unit": "%"}, {"measurement": "platelet counts from baseline (FIG. 2 FAS, FIG. 3 SE population)", "setting": "rollover study", "value": "markedly increased from baseline"}, {"measurement": "durable platelet response estimate", "setting": "sensitivity analysis based on 55 subjects, all subjects", "value": 50.9, "unit": "%"}, {"measurement": "durable platelet response estimate", "setting": "sensitivity analysis, non-responders", "value": 33.3, "unit": "%"}, {"measurement": "durable platelet response estimate", "setting": "sensitivity analysis, responders", "value": 72, "unit": "%"}]}]}
